Experimental findings from patent US10882844B2, “Compounds useful as immunomodulators” (Bristol-Myers Squibb Company, priority 2016, dated 2021) are described below.

What is called pIC50 is the IC50 on a negative log10 scale, so that one unit is a factor of ten.

pIC50: −log10 of the molar value.

The target in the assay is PD-1/PD-L1 (Homo sapiens (Human), UniProt Q9NZQ7). Kind of assay: PD-1/PD-L1 Homogenous Time-Resolved Fluorescence (HTRF) binding assay. The settings on record: PD-1-Ig / PD-L1-His HTRF; value given as range class; read-out: Range or IC50. From the text: The ability of the compounds of formula (I) to bind to PD-L1 was investigated using a PD-1/PD-L1 Homogenous Time-Resolved Fluorescence (HTRF) binding assay.
Sequence of PD-1/PD-L1 (Q9NZQ7 other isoform, or with tags, fused parts or gaps): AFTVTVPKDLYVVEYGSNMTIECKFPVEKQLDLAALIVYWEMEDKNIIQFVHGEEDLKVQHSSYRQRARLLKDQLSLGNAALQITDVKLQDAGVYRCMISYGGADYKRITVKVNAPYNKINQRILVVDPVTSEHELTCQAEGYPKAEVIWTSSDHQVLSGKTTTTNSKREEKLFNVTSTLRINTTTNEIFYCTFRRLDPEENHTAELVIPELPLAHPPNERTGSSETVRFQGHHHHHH
Homogenous Time-Resolved Fluorescence (HTRF) binding assay.
The interaction of PD-1 and PD-L1 can be assessed using soluble, purified preparations of the extracellular domains of the two proteins. The PD-1 and PD-L1 protein extracellular domains were expressed as fusion proteins with detection tags, for PD-1, the tag was the Fc portion of Immunoglobulin (PD-1-Ig) and for PD-L1 it was the 6 histidine motif (PD-L1-His). All binding studies were performed in an HTRF assay buffer consisting of dPBS supplemented with 0.1% […] bovine serum albumin and 0.05% (v/v) Tween-20. For the h/PD-L1-His binding assay, inhibitors were pre-incubated with PD-L1-His (10 nM final) for 15 m in 4 μl of assay buffer, followed by addition of PD-1-Ig (20 nM final) in 1 μl of assay buffer and further incubation for 15 m. HTRF detection was achieved using europium crypate-labeled anti-Ig (1 nM final) and allophycocyanin (APC) labeled anti-His (20 nM final). Antibodies were diluted in HTRF detection buffer and 5 μl was dispensed on top of the binding reaction. The reaction mixture was allowed to equilibrate for 30 minutes and the resulting signal (665 nm/620 nm ratio) was obtained using an EnVision fluorometer. Additional binding assays were established between the human proteins PD-1-Ig/PD-L2-His (20 & 5 nM, respectively) and CD8O-His/PD-L1-Ig (100 & 10 nM, respectively).
Recombinant Proteins: Human PD-1 (25-167) with a C-terminal human Fc domain of immunoglobulin G (Ig) epitope tag [hPD-1 (25-167)-3S-IG] and human PD-L1 (18-239) with a C-terminal His epitope tag [hPD-L1(18-239)-TVMV-His] were expressed in HEK293T cells and purified sequentially by ProteinA affinity chromatography and size exclusion chromatography. Human PD-L2-His and CD80-His was obtained through commercial sources.
The table below lists the IC50 values for representative examples of this disclosure measured in the PD-1/PD-L1 Homogenous Time-Resolved Fluorescence (HTRF) binding assay. Ranges are as follows: A=0.18 nM-0.99 nM; B=1.0 nM-5.0 nM; C=5.01 nM-10.1 nM; D=10.2 nM-200 nM; E=201 nM→10 uM
(In general: Time-resolved FRET reads energy transfer from a long-lived donor to a nearby acceptor.)
Consider `Cc1c(COc2cc(OCc3cncc(C#N)c3)c(CN3CCCC[C@H]3C(=O)O)cc2Cl)cccc1-c1ccc2oc(C3CCN(C4CC4)CC3)nc2c1` [Example 1005, (S)-1-(5-chloro-2-((5-cyanopyridin-3-yl)methoxy)-4-((3-(2-(1-cyclopropylpiperidin-4-yl)benzo[d]oxazol-5-yl)-2-methylbenzyl)oxy)benzyl)piperidine-2-carboxylic Acid], for which the pIC50 is 8.30 to 9.00.

`Cc1c(COc2cc(OCc3cncc(C#N)c3)c(CN3CCCC[C@H]3C(=O)O)cc2Cl)cccc1-c1ccc2ncc(C3=CCNCC3)nc2c1` [Example 1030, (S)-1-(5-chloro-2-((5-cyanopyridin-3-yl)methoxy)-4-((2-methyl-3-(3-(1,2,3,6-tetrahydropyridin-4-yl)quinoxalin-6-yl)benzyl)oxy)benzyl)piperidine-2-carboxylic Acid]: the negative logarithm of the IC50 (pIC50) was 9.00 to 9.74.

As for `Cc1c(COc2cc(OCc3cncc(C#N)c3)c(CN(C)C(C)(CO)CO)cc2Cl)cccc1-c1ccc2oc(N3CCN(C)CC3)nc2c1` [Example 2015], the pIC50 is 9.00 to 9.74.
